Laboratory results published in US20230000842A1, “METHODS OF TREATING CARTILAGE DISORDERS THROUGH INHIBITION OF CLK AND DYRK” (SAMUMED, LLC, priority 2019, published 2023).

What was measured:
[1] = tested on: MMP-3 levels in supernatant of chondrocytes stimulated with IL1-β; test: Chondrocyte protection assay compound screening (MMP-3 LANCE Ultra); type: cell-based, human; settings: Homo sapiens, Chondrocyte, IL1-β 10 ng/mL overnight, 11-point curves from 3 μM to 0.05 nM; for Emax: read-out: Maximum % Inhibition
Experimental: Human Chondrocyte Cell Culture: Primary human chondrocytes were purchased from Lonza (Walkersville, Md.) and expanded in Chondrocyte Growth Media (CGM, Lonza). Cells between passage 2 and 5 were used for the experiments.
Chondrocytes were plated at 8,000 cells/well in 40 μL/well Chondrocyte Differentiation Medium (Lonza; 500 mL Basal Medium, 25 mL FBS, 0.5 mL GA-1000, 1 mL R3-IGF, 2.5 mL bFGF, 0.5 mL Transferrin, and 1 mL Insulin). After 2 hours of incubation at 37° C. and 5% CO2, IL1-β (Peprotech, Rocky Hill, N.J.) was added to a final concentration of 10 ng/mL. 11 wells in 1 row were left unstimulated for normalization and calculating EC50 values. Cells were incubated at 37° C. and 5% CO2 overnight. Assay plates are spun, 25 μl of supernatant media was collected using (S2 pipettor, Apricot Designs). Cells were lysed using 10 μL of (Cell Titer-Glo, Promega). Luminescent signal detected using an En Vision Multilabel reader (Perkin Elmer). MMP-3 levels were measured in supernatant. Supernatant diluted 1:7 in DMEM. MMP-3 levels in the supernatant were measured using MMP-3 LANCE Ultra detection kit (Perkin Elmer). Briefly, 5 μL of diluted supernatant was transferred to low-volume 384 well plates using (S2 pipettor, Apricot Designs). A standard curve was prepared using MMP-3 analyte (range […]). 1.7 μL of 8× mix of Eu-labelled anti-MMP-3 antibody and ULight labelled anti-MMP-3 antibody was added to the plates using Mantis Liquid handler (Formulatrix). Plates were incubated overnight at room temperature. LANCE signal was detected using an EnVision Multilabel reader (Perkin Elmer), equipped with TR-FRET using excitation wavelength of 320 nm and two emission wavelengths of 615 nm and 665 nm. Data was analyzed according to the kit protocol, using the ratio of […] and the standard curve values were used to calculate the amount of MMP3 in the […] (in pg/ml). The normalized averages (fold change over IL1-β stimulated) for each compound concentration were calculated. EC50 and maximum % inhibition values were calculated using the dose-response nonlinear regression curve-fit in Dotmatics.

[2] = tested on: Wnt pathway activity (SW480 colon carcinoma cells stably expressing the Sp5-Luc reporter); test: Wnt pathway activity screening assay (Sp5-Luc reporter gene assay); settings: Homo sapiens, SW480, Table 4; SW480 cells stably expressing Sp5-Luc reporter, 10-point dose-response from 10 μM, 36 to 48 hours
Experimental: The screening assay for Wnt pathway activity is described as follows.
SW480 colon carcinoma cells were transduced with a lentiviral vector expressing luciferase with a human Sp5 promoter consisting of a sequence of eight TCF/LEF binding sites. […] These stably transduced SW480 cells were expanded in cell culture and used for all further screening activities. Each compound was dissolved in DMSO as a 10 mM stock and used to prepare compound source plates. Serial dilution (1:3, 10-point dose-response curves starting from 10 μM) and compound transfer was performed using the ECHO 550 (Labcyte, Sunnyvale, Calif.) into 384-well white solid bottom assay plates (Greiner Bio-One) with appropriate DMSO backfill for a final DMSO concentration of 0.1%. […] Following incubation, 15 μl of BriteLite Plus luminescence reagent (Perkin Elmer) was added to each well of the 384-well assay plates. The plates were placed on an orbital shaker for 2 min and then luminescence was quantified using the Envision (Perkin Elmer) plate reader.

CLK2 kinase = CLK2 kinase (Homo sapiens, UniProt P49760); test: CLK2 kinase activity assay (Z-lyte FRET); type: biochemical; settings: Z-lyte Ser/Thr 6 peptide, 60 μM ATP, 1 h at room temperature;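 further: FRET read-out as coumarin to fluorescein emission ratio, unphosphorylated peptide as 0% and phosphorylated peptide as 100% controls, duplicate reactions, non-linear regression fit of dose-response curves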
CLK3 kinase = CLK3 kinase (Homo sapiens, UniProt P49761); test: CLK3 kinase activity assay (Z-lyte FRET); type: biochemical; settings: Z-lyte Ser/Thr 18 peptide, 156 μM ATP, 1 h at room temperature;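 further: kinase activity read as coumarin/fluorescein emission ratio by FRET, unphosphorylated peptide as 0% and phosphorylated peptide as 100% control, values from non-linear regression of dose-response curves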
[3] = tested on: primary human mesenchymal stem cells (hMSCs); test: Chondrogenesis screening using primary human mesenchymal stem cells; type: cell-based; settings: Homo sapiens, Mesenchymal stem cells, hMSC chondrogenesis; for EC50: concentration required to induce 50% levels of chondrogenesis with TGF-β3 as positive control, read-out: Conc (nM) of 50% TGF-β3 activity; for Emax: maximum activity relative to TGF-β3 (10 ng/mL) positive control, read-out: Max. Activity as % TGF-β3 activity
Method in brief: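 Derived values are EC50 for 50% chondrogenesis, maximal activity and the dose giving it. These come from nodule area in passage 3–6 primary hMSCs, expressed as fold change over the mean of 3 same-plate DMSO wells, 2–3 replicates per concentration. TGF-β3 served as positive control.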

Sequence of CLK2 kinase (P49760 whole entry): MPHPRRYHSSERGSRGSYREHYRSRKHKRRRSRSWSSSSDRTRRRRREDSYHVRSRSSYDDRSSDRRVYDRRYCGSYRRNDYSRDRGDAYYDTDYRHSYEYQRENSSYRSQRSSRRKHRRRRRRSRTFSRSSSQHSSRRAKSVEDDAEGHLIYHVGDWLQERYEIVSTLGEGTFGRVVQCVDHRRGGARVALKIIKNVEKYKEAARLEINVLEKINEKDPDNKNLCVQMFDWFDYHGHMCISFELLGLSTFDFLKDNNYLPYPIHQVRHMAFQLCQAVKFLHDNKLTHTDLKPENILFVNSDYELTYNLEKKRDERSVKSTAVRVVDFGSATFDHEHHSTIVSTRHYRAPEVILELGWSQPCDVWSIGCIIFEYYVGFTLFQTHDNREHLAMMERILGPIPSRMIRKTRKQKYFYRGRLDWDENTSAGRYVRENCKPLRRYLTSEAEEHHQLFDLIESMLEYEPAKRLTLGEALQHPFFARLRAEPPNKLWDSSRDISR
Sequence of CLK3 kinase (P49761 whole entry): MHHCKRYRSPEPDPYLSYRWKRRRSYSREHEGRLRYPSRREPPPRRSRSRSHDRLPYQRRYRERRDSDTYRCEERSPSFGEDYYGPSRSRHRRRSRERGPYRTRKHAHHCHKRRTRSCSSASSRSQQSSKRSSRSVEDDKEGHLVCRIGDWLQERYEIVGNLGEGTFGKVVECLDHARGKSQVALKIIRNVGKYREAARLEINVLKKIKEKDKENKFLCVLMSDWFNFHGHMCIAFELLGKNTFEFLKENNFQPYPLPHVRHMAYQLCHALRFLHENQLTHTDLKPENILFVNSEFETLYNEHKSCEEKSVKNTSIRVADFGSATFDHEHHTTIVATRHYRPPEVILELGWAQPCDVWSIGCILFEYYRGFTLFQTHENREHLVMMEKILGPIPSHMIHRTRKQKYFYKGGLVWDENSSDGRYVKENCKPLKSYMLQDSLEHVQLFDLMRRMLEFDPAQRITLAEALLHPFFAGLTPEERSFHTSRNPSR

Row | Structure (SMILES) | EC50 [2] [nM] | EC50 (CLK2 kinase) [nM] | EC50 (CLK3 kinase) [nM] | EC50 [3] [nM] | EC50 [1] [nM] | Emax [1] [%] | Emax [3] [%]
1 | CC(C)C(=O)Nc1cncc(-c2cnc3[nH]nc(-c4cc5c(-c6cc(F)cc(CNS(C)(=O)=O)c6)cncc5[nH]4)c3c2)c1 [compound 519] | > 10000 | 18 | 236 | – | – | – | 59.6
2 | CC(C)C(=O)Nc1cncc(-c2cc3c(-c4cc5c(-c6cc(F)cc(CNS(C)(=O)=O)c6)nccc5[nH]4)n[nH]c3cn2)c1 [compound 520] | > 10000 | 3 | 75 | 30 | – | – | 79.5
3 | CCCCC(=O)Nc1cncc(-c2cc3c(-c4cc5c(-c6cc(F)cc(CNS(C)(=O)=O)c6)nccc5[nH]4)n[nH]c3cn2)c1 [compound 521] | > 10000 | 9 | 776 | 10 | – | – | 111
4 | CC(C)CC(=O)Nc1cncc(-c2cnc3[nH]nc(-c4cc5c(-c6cc(F)cc(CNS(C)(=O)=O)c6)cncc5[nH]4)c3c2)c1 [compound 523] | 2510 | 9 | 81 | – | – | – | 45.5
5 | CC(C)CC(=O)Nc1cncc(-c2cc3c(-c4cc5c(-c6cc(F)cc(CNS(C)(=O)=O)c6)cncc5[nH]4)n[nH]c3cn2)c1 [compound 524] | > 10000 | 15 | 198 | – | – | – | 24.2
6 | CS(=O)(=O)NCc1cc(F)cc(-c2nccc3[nH]c(-c4n[nH]c5ncc(-c6cncc(NC(=O)C7CCC7)c6)cc45)cc23)c1 [compound 528] | 3640 | 5 | 59 | 300 | – | – | 51.6
7 | CS(=O)(=O)NCc1cc(F)cc(-c2cncc3[nH]c(-c4n[nH]c5cnc(-c6cncc(NC(=O)C7CCC7)c6)cc45)cc23)c1 [compound 529] | > 10000 | 8 | 188 | – | – | – | 15.5
8 | CS(=O)(=O)NCc1cc(F)cc(-c2nccc3[nH]c(-c4n[nH]c5ccc(-c6cncc(NC(=O)Cc7ccccc7)c6)nc45)cc23)c1 [compound 530] | > 10000 | 17 | 151 | 10 | – | – | 110
9 | CCNCc1cncc(-c2ccc3[nH]nc(-c4cc5c(-c6cc(F)cc(CNS(C)(=O)=O)c6)cncc5[nH]4)c3c2)c1 [compound 531] | > 10000 | 5 | 52 | – | – | – | 58
10 | CCNCc1cncc(-c2cnc3[nH]nc(-c4cc5c(-c6cc(F)cc(CNS(C)(=O)=O)c6)nccc5[nH]4)c3c2)c1 [compound 532] | > 10000 | 3 | 305 | 300 | – | – | 61.2
11 | CS(=O)(=O)NCc1cc(F)cc(-c2nccc3[nH]c(-c4n[nH]c5cnc(-c6cncc(CNCC7CCCC7)c6)cc45)cc23)c1 [compound 534] | > 10000 | 4 | 471 | 30 | – | – | 52.3
12 | CS(=O)(=O)NCc1cc(F)cc(-c2cncc3[nH]c(-c4n[nH]c5ncc(-c6cncc(CN7CCCCC7)c6)cc45)cc23)c1 [compound 535] | 1850 | 6 | 53 | – | – | – | 22.7
13 | CS(=O)(=O)NCc1cc(F)cc(-c2nccc3[nH]c(-c4n[nH]c5ncc(-c6cncc(OCc7ccccc7)c6)cc45)cc23)c1 [compound 537] | 3990 | 13 | 329 | – | – | – | 20.6
14 | CN1CCC(C(=O)Nc2cc3cc(-c4cnsc4)cnc3cn2)CC1 [compound 639] | > 10000 | – | – | – | ≥ 3000 | 43.7 | –
15 | O=C(Nc1cc2cc(-c3cnco3)cnc2cn1)C1CCNCC1 [compound 641] | > 10000 | – | – | – | 35.8 | 48.4 | –

The next compounds have a lower EC50 [2] than those just listed; values first:

Row | EC50 [2] [nM] | EC50 (CLK2 kinase) [nM] | EC50 (CLK3 kinase) [nM] | EC50 [3] [nM] | Structure (SMILES) | EC50 [1] [nM] | Emax [1] [%] | Emax [3] [%]
16 | 1680 | 7 | 39 | – | CCCC(=O)Nc1cncc(-c2cnc3[nH]nc(-c4cc5c(-c6cc(F)cc(CNS(C)(=O)=O)c6)cncc5[nH]4)c3c2)c1 [compound 518] | – | – | 36.7
17 | 1510 | 8 | 48 | 300 | CC(C)CC(=O)Nc1cncc(-c2cnc3[nH]nc(-c4cc5c(-c6cc(F)cc(CNS(C)(=O)=O)c6)nccc5[nH]4)c3c2)c1 [compound 522] | – | – | 52
18 | 1390 | – | – | – | O=C(NC1C[C@@H]1c1ccccc1)c1n[nH]c2ccc(-c3cccnc3)cc12 (stereo partly drawn) [compound 59] | 1.6 | 99.2 | –
19 | 1300 | 4 | 140 | 10 | CS(=O)(=O)NCc1cc(F)cc(-c2cncc3[nH]c(-c4n[nH]c5ccc(-c6cncc(NC(=O)C7CC7)c6)nc45)cc23)c1 [compound 526] | – | – | 82.9
20 | 1100 | 5 | 79 | 10 | CS(=O)(=O)NCc1cc(F)cc(-c2nccc3[nH]c(-c4n[nH]c5ccc(-c6cncc(CN7CCCCC7)c6)nc45)cc23)c1 [compound 536] | – | – | 50.1
21 | 1030 | – | – | – | O=C(NC1C[C@@H]1c1ccccc1)c1n[nH]c2ccc(-c3cncc(CN4CCCCC4)c3)cc12 (stereo partly drawn) [compound 76] | 0.4 | 97.9 | –
22 | 1030 | 2 | 58 | 10 | CS(=O)(=O)NCc1cc(F)cc(-c2cncc3[nH]c(-c4n[nH]c5ccc(-c6cncnc6)nc45)cc23)c1 [compound 538] | – | – | 106
23 | 809 | – | – | – | Cc1n[nH]c2ccc(-c3cncc(NC(CO)Cc4cccc(C(F)(F)F)c4)n3)cc12 (stereo not drawn) [compound 51] | ≥ 3000 | 48.1 | –
24 | 577 | 2 | 12 | 5000 | CN1CCCCN(C)c2nccc3[nH]c(nc23)-c2n[nH]c3ccc(cc23)-c2cncc(c2)C1 [compound 617] | – | – | 231
25 | 554 | 11 | 66 | – | CS(=O)(=O)NCc1cc(F)cc(-c2cncc3[nH]c(-c4n[nH]c5ccc(-c6cncc(NC(=O)C7CCC7)c6)cc45)cc23)c1 [compound 527] | – | – | 14.5
26 | 479 | 8 | 38 | – | CC(C)CC(=O)Nc1cncc(-c2ccc3[nH]nc(-c4cc5c(-c6cc(F)cc(CNS(C)(=O)=O)c6)nccc5[nH]4)c3n2)c1 [compound 525] | – | – | 33.1
27 | 420 | 5 | 63 | 10 | CN(C)CCNc1cc(F)cc(-c2cccc3[nH]c(-c4n[nH]c5ccc(-c6cncnc6)nc45)cc23)c1 [compound 516] | – | – | 181
28 | 405 | 5 | 109 | 10 | CN(C)CCNc1cc(F)cc(-c2cccc3[nH]c(-c4n[nH]c5cnc(-c6cncc(O)c6)cc45)cc23)c1 [compound 515] | – | – | 66.4
29 | 262 | – | – | – | Cc1n[nH]c2ccc(-c3cncc(OC[C@@H](N)Cc4ccccc4)c3)cc12 [compound 35] | ≥ 3000 | 99.3 | –
30 | 244 | 8 | 216 | – | CCC(=O)Nc1cncc(-c2ccc3[nH]nc(-c4cc5c(-c6cc(F)cc(CNS(C)(=O)=O)c6)cncc5[nH]4)c3c2)c1 [compound 517] | – | – | 29.4
31 | 41.8 | 2 | 12 | 200 | c1cc2cc(c1)-c1cncc3[nH]c(nc13)-c1n[nH]c3ccc(cc13)-c1cncc(c1)CNC2 [compound 618] | – | – | 558
